Laboratory results taken from patent US20250313546A1, “NUCLEIC ACID BINDERS” (UNIVERSITY OF STRATHCLYDE, priority 2022, published 2025).
≈ marks a conversion by molar mass, not a printed value.

Legend:
[1] = test system: Enterococcus faecalis (ATCC 51299); assay: Antibacterial MIC, broth microdilution (CLSI); type: cell-based; conditions: for MIC80: Enterococcus faecalis, ATCC51299, read-out: MIC80 E. faecalis; for E. faecalis Selectivity Indices, Group / E. faecalis Selectivity Index (SI): SI, IC50 (μM)/MIC80 (μM), HEK293 cytotoxicity; for E. faecalis Selectivity Indices, Group: Alkyl Amidines and NH Pyrroles; for E. faecalis Selectivity Index (SI): numeric value
C. neoformans (F10025) = conditions: Cryptococcus neoformans, read-out: MIC99 C. neoformans
[2] = test system: PolyAU double stranded RNA; assay: Fluorescence intercalator displacement (FID) assay, SYBR-safe probe; conditions: 20 μM compound, 30° C., lower % = stronger binding
How it was run: (§1)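 Probe displacement was measured at 30 °C in 1 mM phosphate pH 7.4 containing SybrSafe (12500-fold dilution), 3.76 ng/mL nucleic acid (salmon dsDNA or polyAU dsRNA) and 20 μM compound. Fluorescence loss is normalised between probe-only and probe-plus-nucleic-acid controls.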

[3] = test system: Genomic double stranded DNA (salmon); assay: as above; conditions: 20 μM compound, 30° C., lower % = stronger binding
How it was run: as §1

[4] = test system: Candida glabrata (ACPF3309); conditions: for MIC99: Nakaseomyces glabratus, read-out: MIC99 Candida glabrata; for C. glabrata Selectivity Indices, Group: Alkyl Amidines and NH Pyrroles
Method: (§2) The Minimum Inhibitory Concentration (MIC, at 99% inhibition) of the compounds was determined using the broth microdilution method as recommended by EUCAST (EUCAST Definitive Document E.DEF 9.3.2, Method for the determination of broth dilution minimum inhibitory concentrations of antifungal agents for conidia forming moulds and EUCAST Definitive Document E.DEF 7.3.2 Method for the determination of broth dilution minimum inhibitory concentrations of antifungal agents for yeasts).

T. equiperdum = assay: Resazurin-based (Alamar blue) drug sensitivity assay; conditions: Trypanosoma equiperdum, read-out: IC50 T. equiperdum
Method: A detailed description of the procedure for evaluating activity against trypanosomes, using an Alamar Blue (resazurin) assay, is described below.
The bloodstream form (BSF) T. b. brucei s427 (see De Koning, H. P. et al., Mol. Biochem. Parasitol. 2000, 106, 181-185), T. evansi AntTat 3/3 (see Dean, S. et al., Proc. Natl. Acad. Sci. USA, 2013, 110, 14741-14746), and T. equiperdum (see Stewart, M. L. et al., Eukaryot. Cell, 2010, 9, 336-343) were cultured in HMI-9 medium (Life Technologies, Paisley, United Kingdom) supplemented with 10% heat inactivated Foetal Bovine Serum (FBS (PAA Laboratories Linz, Austria)), 14 μL/L β-mercaptoethanol (BDH, Dorset, UK), and 3.0 g/L NaHCO3 (Sigma-Aldrich) and adjusted to pH 7.4. These cell lines were maintained at 37° C. in a humidified, 5% CO2 environment.
A resazurin-based (Alamar blue) drug sensitivity assay was used to assess and compare the activity of standard trypanocides in the different cell lines investigated (see Gould, M. K. et al., Anal. Biochem., 2008, 382, 87-93). Briefly, 23 doubling dilutions of the test compound of the invention, starting at 100 μM, and a compound-free control were prepared in 100 μL medium in a 96-well white plate (Greiner Bio-one, Frickenhausen, Germany). The cells were adjusted to 2×10^4 cells/mL for T. b. brucei and T. equiperdum; 4×10^4 cells/mL for T. evansi; and 5×10^5 cells/mL for T. congolense in the appropriate medium. 100 μL of the adjusted cells was then added to the wells containing drug dilutions and incubated for 48 h under respective culture condition. Thereafter, 20 μL of 125 mg/mL resazurin sodium dye was added, and the plate was incubated for a further 24 h.

[5] = test system: A. fumigatus A1160 (MFIG001); conditions: Aspergillus fumigatus, read-out: MIC99 A. fumigatus A1160
Method: as §2

[6] = test system: Staphylococcus aureus (ATCC 43300); assay: Antibacterial MIC, broth microdilution (CLSI); type: cell-based; conditions: for S. aureus Selectivity Indices, Group / S. aureus Selectivity Index (SI): SI, IC50 (μM)/MIC80 (μM), HEK293 cytotoxicity; for S. aureus Selectivity Indices, Group: Alkyl Amidines and NH Pyrroles; for S. aureus Selectivity Index (SI): numeric value; for MIC80: Staphylococcus aureus, ATCC43300, read-out: MIC80 S. aureus
[7] = test system: Escherichia coli (ATCC 25922); assay: Antibacterial MIC, broth microdilution (CLSI); type: cell-based; conditions: Escherichia coli, ATCC25922; read-out: MIC80 E. coli
T. evansi AntTat 3/3 = assay: Resazurin-based (Alamar blue) drug sensitivity assay; conditions: read-out: IC50 T. evansi
[8] = test system: Rhizopus arrhizus (NEQAS12.35321); conditions: read-out: MIC99 Rhizopus arrhizus
Method: as §2

Candida auris (H.17.157) = conditions: for MIC99: Candidozyma auris, read-out: MIC99 Candida auris; for C. auris Selectivity Indices, Group: SI, IC50 (μM)/MIC99 (μg/mL), HEK293 cytotoxicity, Alkyl Amidines and NH Pyrroles
Method: as §2

[9] = test system: SARS-CoV-2 (hCoV-19/Australia/VIC01/2020); assay: SARS-CoV-2 microplaque inhibition assay in Vero-E6 cells; type: cell-based; conditions: for SARS-CoV-2 Selectivity Indices, Group: Alkyl Amidines and NH Pyrroles; for IC50: Severe acute respiratory syndrome coronavirus 2, Vero C1008, plaque inhibition, Vero-E6 cells, read-out: IC50 SARS-CoV-2
Influenza (H1N1) = assay: Accelerated Viral Neuraminidase Inhibition Assay (AVINA), A549 cells; type: cell-based; conditions: Influenza A virus, 72 h
[10] = test system: human respiratory syncytial virus (RSV A2); assay: Viral ToxGlo assay, Hep-2 cells; type: cell-based; conditions: 72 h
T. vaginalis = assay: Trichomonas resorufin assay; type: cell-based; conditions: for IC50: Trichomonas vaginalis, read-out: IC50 T. vaginalis
[11] = SI, IC50 (μM)/MIC99 (μg/mL), HEK293 cytotoxicity
[12] = SI, IC50 (μM)/IC50 (μM), HEK293 cytotoxicity
[13] = SI, IC50 (μM)/IC50 (μM), HEK293 cytotoxicity, numeric value

Compound | MIC80 [1] [µM] | E. faecalis Selectivity Indices, Group [1] | MIC99 (C. neoformans (F10025)) [µg/mL] | % Normalised Fluorescence with polyAU RNA [2] [%] | % Normalised Fluorescence with gDNA [3] [%] | MIC99 [4] [µg/mL] | IC50 (T. equiperdum) [nM] | MIC99 [5] [µg/mL] | S. aureus Selectivity Indices, Group [6] | S. aureus Selectivity Index (SI) [6] | MIC80 [6] [µM] | MIC80 [7] [µM] | IC50 (T. evansi AntTat 3/3) [nM] | MIC99 [8] [µg/mL] | MIC99 (Candida auris (H.17.157)) [µg/mL] | C. auris Selectivity Indices, Group (Candida auris (H.17.157)) | IC50 [9] [nM] | inhibition at 20 µM (Influenza (H1N1)) [%] | inhibition at 20 µM [10] [%] | IC50 (T. vaginalis) [nM] | other results
Cn1cc(NC(=O)c2cc(NC(=O)c3ccc(/C=C/c4cnc5ccccc5c4)cc3)c[nH]2)cc1C(=O)NCCC(=N)N [IIIa4, (E)-N-(3-amino-3-iminopropyl)-1-methyl-4-(4-(4-(2-(quinolin-3-yl)vinyl)benzamido)-1H-pyrrole-2-carboxamido)-1H-pyrrole-2-carboxamide] | < 5 | D (D: SI > 10) | < 5 | 3 | 14 | < 5 | < 10 | 5 to 25 (≈ 8.7 to 43.5 µM) | D (D: SI > 10) | 81 | < 5 | 25 to 100 (≈ 14.4 to 57.5 µg/mL) | 10 to 100 | 5 to 25 (≈ 8.7 to 43.5 µM) | 25 to 50 (≈ 43.5 to 87 µM) | C (Group C 1 < SI <= 3) |  |  |  |  | E. faecalis Selectivity Index (SI) [1]: 41; C. glabrata Selectivity Indices, Group [4, 11]: D (Group D: SI > 50); C. glabrata Selectivity Index (SI) ([4]; SI, IC50 (μM)/MIC99 (μg/mL), HEK293 cytotoxicity, numeric value): 652
CN(C)c1ccc(/C=C/c2ccc(C(=O)Nc3cc(C(=O)Nc4c[nH]c(C(=O)NCCC(=N)N)c4)n(C)c3)cn2)cc1 [IIIa7, (E)-N-(5-((5-((3-amino-3-iminopropyl)carbamoyl)-1H-pyrrol-3-yl)carbamoyl)-1-methyl-1H-pyrrol-3-yl)-6-(4-(dimethylamino)styryl)nicotinamide] | 5 to 25 (≈ 2.84 to 14.2 µg/mL) |  | < 5 | 20 | 13 | < 5 | > 1000 | 5 to 25 (≈ 8.81 to 44 µM) | D (D: SI > 10) | 14 | < 5 | 25 to 100 (≈ 14.2 to 56.8 µg/mL) | > 1000 | 5 to 25 (≈ 8.81 to 44 µM) | 5 to 25 (≈ 8.81 to 44 µM) | C (Group C 1 < SI <= 3) | < 2000 |  |  |  | C. glabrata Selectivity Indices, Group [4, 11]: B (Group B: 12 < SI <= 20); SARS-CoV-2 Selectivity Indices, Group [9, 12]: C (Group C: 10 < SI <= 25); SARS-CoV-2 Selectivity Index (SI) [9, 13]: 24
N=C(N)CCNC(=O)c1cc(NC(=O)c2cc(NC(=O)c3ccc(/C=C/c4ccc5nonc5c4)cc3)c[nH]2)c[nH]1 [IIIa8, (E)-N-(3-amino-3-iminopropyl)-4-(4-(4-(2-(benzo[c][1,2,5]oxadiazol-5-yl)vinyl)benzamido)-1H-pyrrole-2-carboxamido)-1H-pyrrole-2-carboxamide] | > 100 |  | 5 to 25 (≈ 9.07 to 45.3 µM) | 10 | 31 | > 50 | < 10 | > 50 |  |  | 25 to 100 (≈ 13.8 to 55.2 µg/mL) | > 100 | 10 to 100 | > 50 | > 50 |  |  |  |  |  | 
Cn1cc(NC(=O)c2cc(NC(=O)c3ccc(/C=C/c4cnc5ccccc5c4)cc3)c[nH]2)cc1C(=O)NCCN1CCOCC1 [IIIb8, (E)-1-methyl-N-(2-morpholinoethyl)-4-(4-(4-(2-(quinolin-3-yl)vinyl)benzamido)-1H-pyrrole-2-carboxamido)-1H-pyrrole-2-carboxamide] | > 100 |  |  | 26 | 37 |  | < 10 |  |  |  | < 5 | > 100 | 10 to 100 |  |  |  |  | > 50 |  |  | 
[H]/N=C(\CCNC(=O)c1cc(NC(=O)c2cc(NC(=O)c3ccc(C=Cc4ccc(N(C)C)cc4)nc3)cn2C)cn1C)NCC [Ia1, (E)-6-(4-(dimethylamino)styryl)-N-(5-((5-((3-(ethylamino)-3-iminopropyl)carbamoyl)-1-methyl-1H-pyrrol-3-yl)carbamoyl)-1-methyl-1H-pyrrol-3-yl)nicotinamide] | 25 to 100 (≈ 15.2 to 61 µg/mL) |  | < 5 | 5 | 13 | < 5 | 100 to 1000 | 5 to 25 (≈ 8.2 to 41 µM) | B (Group B: 3 < SI <= 5) |  | 5 to 25 (≈ 3.05 to 15.2 µg/mL) | > 100 | 10 to 100 | > 50 | 5 to 25 (≈ 8.2 to 41 µM) | B (Group B: 0.4 < SI <= 1) | 2000 to 8000 |  |  |  | SARS-CoV-2 Selectivity Indices, Group [9, 12]: B (Group B: 4.1 < SI <= 10)
CC/N=C(\N)CCNC(=O)c1cc(NC(=O)c2cc(NC(=O)c3ccc(/C=C/c4cnc5ccccc5c4)cc3)cn2C)cn1C [Ia14, N—((Z)-3-amino-3-(ethylimino)propyl)-1-methyl-4-(1-methyl-4-(4-((E)-2-(quinolin-3-yl)vinyl)benzamido)-1H-pyrrole-2-carboxamido)-1H-pyrrole-2-carboxamide] | < 5 | D (D: SI > 10) | 5 to 25 (≈ 8.11 to 40.5 µM) | 6 | 2 | 5 to 25 (≈ 8.11 to 40.5 µM) |  | > 50 | D (D: SI > 10) | 44 | < 5 | > 100 |  | > 50 | > 50 |  |  | < 10 | 10 to 25 | < 1000 | E. faecalis Selectivity Index (SI) [1]: 11; T. vaginalis Selectivity Indices, Group (T. vaginalis; SI, IC50 (μM)/IC50 (μM), HEK293 cytotoxicity, Alkyl Amidines and NH Pyrroles): D (Group D: SI > 32); T. vaginalis Selectivity Index (SI) (T. vaginalis; [13]): 35
COc1ccc(/C=C/c2ccc(C(=O)Nc3cc(C(=O)Nc4cc(C(=O)NCCC(=N)NC(C)C)n(C)c4)n(C)c3)cn2)cc1 [Ia15, (E)-N-(5-((5-((3-imino-3-(isopropylamino)propyl)carbamoyl)-1-methyl-1H-pyrrol-3-yl)carbamoyl)-1-methyl-1H-pyrrol-3-yl)-6-(4-methoxystyryl)nicotinamide] | 5 to 25 (≈ 3.05 to 15.3 µg/mL) |  | < 5 | 64 | 16 | 5 to 25 (≈ 8.19 to 40.9 µM) | 100 to 1000 | 25 to 50 (≈ 40.9 to 81.9 µM) | C (Group C: 5 < SI <= 10) |  | 5 to 25 (≈ 3.05 to 15.3 µg/mL) | 25 to 100 (≈ 15.3 to 61.1 µg/mL) | 100 to 1000 |  |  |  | 8000 to 32000 |  | 10 to 25 | > 50000 | 
[H]/N=C(\CCNC(=O)c1cc(NC(=O)c2cc(NC(=O)c3ccc(C=Cc4ccc(C#N)cc4)cc3)cn2C)cn1C)NCC [Ia16, (E)-4-(4-(4-cyanostyryl)benzamido)-N-(5-((3-(ethylamino)-3-iminopropyl)carbamoyl)-1-methyl-1H-pyrrol-3-yl)-1-methyl-1H-pyrrole-2-carboxamide] | 5 to 25 (≈ 2.95 to 14.8 µg/mL) | B (Group B: 3 < SI <= 5) | 5 to 25 (≈ 8.46 to 42.3 µM) | 27 | 31 | 25 to 50 (≈ 42.3 to 84.6 µM) |  | > 50 |  |  | 25 to 100 (≈ 14.8 to 59.1 µg/mL) | > 100 |  |  |  |  |  | 25 to 50 | 25 to 50 | 5000 to 50000 | 
[H]/N=C(\CCNC(=O)c1cc(NC(=O)c2cc(NC(=O)c3ccc(C=Cc4ccc(C#N)cc4)cc3)cn2C)cn1C)NC(C)C [Ia17, (E)-4-(4-(4-cyanostyryl)benzamido)-N-(5-((3-imino-3-(isopropylamino)propyl)carbamoyl)-1-methyl-1H-pyrrol-3-yl)-1-methyl-1H-pyrrole-2-carboxamide] | 25 to 100 (≈ 15.1 to 60.5 µg/mL) |  | > 50 | 28 | 13 | 25 to 50 (≈ 41.3 to 82.7 µM) |  | > 50 |  |  | 25 to 100 (≈ 15.1 to 60.5 µg/mL) | > 100 |  |  |  |  |  | 10 to 25 | 10 to 25 | 5000 to 50000 | 
